# Laboratory results published in article PMC3311015 (Proceedings of the Japan Academy. Series B, Physical and …, 2011).
# Where two headings read alike, the source gives them in different places.
# Experiments:
# in vivo [1] = assay: in vivo; design: species or system Male SD rats; conditions: D-Trp i.p. 100 mg·kg^−1; for AUC / Cmax / k el / half-life: male, SD, rat, in vivo, ip, 100 mg/kg; for AUC: read-out: AUC of plasma D-Trp; for Cmax: read-out: Cmax of plasma D-Trp; for k el: read-out: Ke of plasma D-Trp (converted); for half-life: read-out: t1/2 of plasma D-Trp
# Protocol: (§1) Administration of Ket to rats was carried out as previously reported.[9]) Ketamine hydrochloride (Wako Pure Chemicals Co., Ltd., Osaka, Japan) was dissolved in physiological saline ([…]) and then intraperitoneally (i.p.) administered (30 mg·kg^−1) to 7-week-old rats daily for 5 consecutive days. The control animals received only saline (1 mL·kg^−1·day^−1). The rats were used for experiments 4 weeks after cessation of the ketamine or saline treatment.
# […] A heparinized syringe with a 25-gauge needle was used to draw blood (approximately 0.20 mL) from the left jugular vein 0.5, 1, 1.5, 2, 3, 4, 5, and 6 h after administration of D-Trp. The blood was treated in a similar manner as described in previous paper.[17]) Plasma D-Trp concentration was determined by our previously published HPLC method.[17])
# (§2) Pharmacokinetic parameters obtained in the present study were determined by a simplex method analysis or moment analysis. Statistical analyses were performed using a one-way analysis of variance (ANOVA), followed by Bonferroni’s multiple comparison test. A p value below 0.05 was judged as a significant difference.
# DAAO = tested on: DAAO; design: method as in PMID 20801337; conditions: D-Trp as substrate for DAAO; cited from earlier work
# in vivo [2] = type: in vivo, Male SD rats
# Protocol: as §1
# A solution of MPC (5.0 or 50 mg·kg^−1·3 mL^−1) was prepared in PBS/ethanol/PEG (2.8/0.1/0.1) and was i.p. administered to rats. A heparinized syringe with a 25-gauge needle was used to draw blood (approximately 0.20 mL) from the left jugular vein at 0.083, 0.25, 0.5, 1, 2, and 3 h after administration of MPC (5.0 mg·kg^−1, n = 4), or at 0.083, 0.25, 0.5, 1, and 3 h after administration of MPC (50 mg·kg^−1, n = 5–6). Before administration of either dose of MPC, blood (approximately 0.20 mL) was obtained from each rat and used as the control. The blood was centrifuged at 3,000 g for 10 min at 4℃ to obtain plasma. The plasma was transferred to another tube and stored at −80℃ until it was analyzed.
# For determining the plasma concentration of MPC, 2 calibration curves (31.25–250 µM and 200–800 µM) were constructed. Ten microliters of PBS or rat blank plasma was spiked with 10 µL of 31.25–800 µM MPC dissolved in CH3CN and 10 µL of 200 µM I.S. dissolved in CH3CN, and vigorously mixed with 70 µL of CH3CN/MeOH (50/50). In the case of plasma samples from the rats administered MPC, 10 µL of CH3CN was used instead of MPC in CH3CN.
# After centrifugation at 2,500 rpm for 5 min, 50 µL of the supernatant was sampled and evaporated in vacuo. The obtained residue was dissolved in 100 µL of the mobile phase, 60 µL (31.25–250 µM) or 20 µL (200–800 µM) of the final solution after filtration with Durapore® (0.2 µm membrane, Millipore K.K., Tokyo, Japan), and was injected into the LC-MS system.
# The LC-MS apparatus comprised an Agilent 1200 series HPLC (Agilent Technologies, CA, U.S.A.) and a time of flight (TOF)-MS, JMS-T100 LP AccuTOF LC-Plus, equipped with an electrospray ionization (ESI) source (JEOL Co. Ltd., Tokyo, Japan). The separation column used in this study was TSKgel ODS-80Ts QA (150 mm × 2.0 mm; i.d., 5 µm) (Tosoh Corporation, Tokyo, Japan). For the mobile phase, 0.1% HCO2H in H2O/CH3CN (95/5) was eluted isocratically at 0.16 mL·min^−1. Column temperature was maintained at 40℃. The conditions for ESI-MS detection were as follows: positive ion mode; needle voltage was set at 2,000 V; and the ring lens and orifice 1 and 2 voltages were set at 8, 49, and 4 V, respectively. Nitrogen was used as the nebulizing and desolvating gas, and the pressure was constant at 0.617 MPa. The desolvation chamber and orifice 1 temperatures were 250℃ and 80℃, respectively. The data were obtained using Mass Center software, MS-56010MP (JEOL).
# as §2
# [3] = target: T1, D-amino acid oxidase (DAAO) (Rattus norvegicus, UniProt O35078); assay: DAAO-inhibitory effect of MPC in vivo (change of plasma D-Trp concentration after MPC pretreatment); design: species or system Male SD rats; conditions: MPC 50 mg·kg^−1 i.p. 30 min before D-Trp 100 mg·kg^−1 i.p.
# T1 construct: Male SD rats were purchased from Charles River Japan; from tissue; host or cells: whole animal (male SD rats); DAAO activity is attributed to liver and kidney cells
# T1 sequence (O35078 whole entry): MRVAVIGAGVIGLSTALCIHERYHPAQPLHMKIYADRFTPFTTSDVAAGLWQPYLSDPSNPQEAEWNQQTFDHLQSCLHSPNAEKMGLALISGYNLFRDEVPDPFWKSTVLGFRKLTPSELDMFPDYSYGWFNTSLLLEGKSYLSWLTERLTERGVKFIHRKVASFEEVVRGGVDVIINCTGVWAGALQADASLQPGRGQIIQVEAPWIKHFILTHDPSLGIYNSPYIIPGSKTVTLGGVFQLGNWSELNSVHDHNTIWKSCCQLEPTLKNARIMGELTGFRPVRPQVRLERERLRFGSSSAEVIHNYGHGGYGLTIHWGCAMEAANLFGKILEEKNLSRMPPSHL
# Protocol: as §1
# D-Trp was dissolved in PBS (10 mg·mL^−1) and administered i.p. to control or Ket-treated rats (100 mg·kg^−1; n = 3–5) at 30 min after i.p. administration of MPC (50 mg·kg^−1). A heparinized syringe with a 25-gauge needle was used to draw blood (approximately 0.20 mL) from the left jugular vein 0.5, 1, 1.5, 2, 3, 4, 5, and 6 h after administration of D-Trp. The blood was treated in a similar manner as described in previous paper.[17]) Plasma D-Trp concentration was determined by our previously published HPLC method.[17])
# as §2
# [4] = rat, in vivo, 10 mg/kg; cited from earlier work
# [5] = rat; cited from earlier work
# [6] = Ket-treated rat, with pretreatment of MPC (50 mg·kg^−1)
# [7] = Ket-treated rat, without pretreatment of MPC
# [8] = control rat, with pretreatment of MPC (50 mg·kg^−1)
# [9] = control rat, without pretreatment of MPC
smiles,measurement,setting,value
"N[C@H](Cc1c[nH]c2ccccc12)C(=O)O [D-Trp, D-tryptophan]",CL of plasma D-Trp,in vivo [1]; [6],0.404 ± 0.10 L/h/kg
same,Vd of plasma D-Trp,in vivo [1]; [6],0.544 ± 0.09 L/kg
same,CL of plasma D-Trp,in vivo [1]; [7],0.696 ± 0.11 L/h/kg
same,Vd of plasma D-Trp,in vivo [1]; [7],0.703 ± 0.07 L/kg
same,CL of plasma D-Trp,in vivo [1]; [8],0.183 ± 0.01 L/h/kg
same,Vd of plasma D-Trp,in vivo [1]; [8],0.237 ± 0.02 L/kg
same,CL of plasma D-Trp,in vivo [1]; [9],0.602 ± 0.02 L/h/kg
same,Vd of plasma D-Trp,in vivo [1]; [9],0.712 ± 0.04 L/kg
same,AUC,in vivo [1]; [6],983 ± 128 µM·h
same,Cmax,in vivo [1]; [6],608 ± 115 µM
same,k el,in vivo [1]; [6],0.0002 s⁻¹
same,half-life,in vivo [1]; [6],60.2 ± 6.1 min
same,AUC,in vivo [1]; [7],719 ± 63.6 µM·h
same,Cmax,in vivo [1]; [7],587 ± 33.5 µM
same,k el,in vivo [1]; [7],0.000269 s⁻¹
same,half-life,in vivo [1]; [7],43.7 ± 2.79 min
same,AUC,in vivo [1]; [8],2080 ± 138 µM·h
same,Cmax,in vivo [1]; [8],1130 ± 75 µM
same,k el,in vivo [1]; [8],0.000214 s⁻¹
same,half-life,in vivo [1]; [8],54 ± 0.1 min
same,AUC,in vivo [1]; [9],693 ± 42.9 µM·h
same,Cmax,in vivo [1]; [9],567 ± 42.6 µM
same,k el,in vivo [1]; [9],0.000236 s⁻¹
same,half-life,in vivo [1]; [9],49.1 ± 1.3 min
same,Km,DAAO,845 µM
"Cc1cc(C(=O)O)n[nH]1 [MPC, 3-methylpyrazole-5-carboxylic acid]","differences in PK parameters (Cmax, t1/2, AUC) of plasma MPC between control and Ket-treated rats",in vivo [2]; MPC i.p. 5.0 mg·kg^−1,no remarkable differences
same,time at which the maximum concentration (Cmax) of plasma MPC was reached,"in vivo [2]; MPC i.p. 5.0 mg·kg^−1, Ket-treated rats",0.5 h
same,time at which the maximum concentration (Cmax) of plasma MPC was reached,"in vivo [2]; MPC i.p. 5.0 mg·kg^−1, control rats",0.5 h
same,Cmax value of plasma MPC concentration in Ket-treated rats compared with control group,in vivo [2]; MPC i.p. 50 mg·kg^−1,significantly higher
same,plasma MPC concentrations at 5.0 and 15 min in Ket-treated rats compared with control groups,"in vivo [2]; MPC i.p. 50 mg·kg^−1, p < 0.01 and p < 0.05",significantly higher
same,clearance (CL) of plasma MPC,"in vivo [2]; control rats, i.p. administration, present data",18.3 L/h/kg
same,half-life,"in vivo [2]; male, SD, rat, in vivo, ip, control rats, i.p. administration, present data, read-out: t1/2 of plasma MPC",50.8 min
same,plasma D-Trp concentrations after MPC pretreatment compared with no pretreatment,[3]; Ket-treated rats,no significant increase
same,plasma D-Trp concentrations after MPC pretreatment compared with no pretreatment,[3]; control rats,significantly higher
same,clearance (CL) of plasma MPC,[4],0.22 L/h/kg
same,t1/2 of plasma MPC,[4],335 min
CNC1(c2ccccc2Cl)CCCCC1=O (centres unmarked) [ketamine],half-life in plasma,[5],30 to 36 min
NC1(c2ccccc2Cl)CCCCC1=O (centres unmarked) [norketamine],half-life in plasma,[5],36 to 48 min
